Measurements taken from US20070135383A1, “Phospholipase inhibitors, including multi-valent phospholipase inhibitors, and use thereof, including as lumen-localized phospholipase inhibitors” (priority 2005, published 2007).

How the values were obtained:
[1] = Bioavailability study, IV vs oral (Example 13); format: in vivo, male CD-1 mice; details: male, CD-1, mouse, plasma; oral ~30 mg/kg vs IV ~3 mg/kg
Description: Bioavailability was determined for Compound 5-24 (ILY-V-24) as follows. Generally, the bioavailability was calculated by comparing a timecourse of the concentration of the test compound in the serum of mice after an intravenous (IV) dosing, versus the timecourse of the concentration following an oral dosing of the test compound. The IV dose was ˜3 mg/kg, the oral dose was ˜30 mg/kg.
Oral Formulation. The oral formulation was prepared as follows. To sterile flask, 90 ml of sterile Milli-Q water was added. 9 ml of PEG-400 was added (final concentration of 9%). 50 ul of Tween-80 was added (final concentration of 0.05%). 0.9 g of CMC was weighed and added (final concentration of 0.9% w/v). […]
Study Design. […] On study day 0, all the animals were weighed, dosages were calculated and the animals were dosed by oral route (PO) or (IV) as outlined below in Table 5. […]
Calculations. Bioavailability was calculated as follows. Individual doses were calculated based on an average of body weights taken on the day of dosing. Serum concentrations of test compound, as well as the actual concentration of dosing solutions, were measured using 2-dimensional Mass Spectrophotometry after Liquid Chromatography (LC MS/MS). […]

[2] = Pharmacokinetic study of ILY-4001, IV and oral (Example 1B-3); format: in vivo, mice; details: 30 mg/kg oral
Description: This example evaluated the bioavailability of ILY-4001 [2-(3-(2-amino-2-oxoacetyl)-1-(biphenyl-2-ylmethyl)-2-methyl-1H-indol-4-yloxy)acetic acid], alternatively referred to herein as methyl indoxam. Specifically, a pharmokinetic study was conducted to determine the fraction of unchanged ILY-4001 in systemic circulation following administration.
Bioavailability was calculated as a ratio of AUC-oral/AUC-intravenous (IV). To determine this ratio, a first set of subject animals were given a measured intravenous (IV) dose of ILY-4001, followed by a determination of ILY-4001 levels in the blood at various time points after administration (e.g., 5 minutes through 24 hours). Another second set of animals was similarly dosed using oral administration, with blood levels of ILY-4001 determined at various time points after administration (e.g., 30 minutes through 24 hours). The level of ILY-4001 in systemic circulation were determined by generally accepted methods (for example as described in Evans, G., A Handbook of Bioanalysis and Drug Metabolism. Boca Raton, CRC Press (2004)). Specifically, […]/mass spectrometry/mass spectrometry (LC/MS/MS) analytical methods were used to quantitate plasma concentrations of ILY-4001 after oral and intravenous administration. Pharmacokinetic parameters that were measured include Cmax, AUC, tmax, t1/2, and F (bioavailability). […]

[3] = In-vitro Caco-2 permeability study (Example 1B-2); details: human
[4] = biological target: human PLA2 IB enzyme (Homo sapiens, UniProt P04054); details: versus the human PLA2 IB enzyme; cited from earlier work
Chain of human PLA2 IB enzyme (P04054 23-148): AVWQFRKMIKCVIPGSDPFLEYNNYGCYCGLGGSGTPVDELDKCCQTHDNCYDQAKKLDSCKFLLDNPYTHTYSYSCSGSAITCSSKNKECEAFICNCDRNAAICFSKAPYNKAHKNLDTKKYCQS

Structure (SMILES)	bioavailability [1] [%]	level of non-absorption from the GI tract into systemic circulation [2] [%]	Papp A→B at 6 hr, 50 ug/ml [3] [×10⁻⁶ cm/s]	IC50 [4] [nM]
Cc1c(C(=O)C(N)=O)c2c(OCC(=O)O)cccc2n1CCCCCCCCSCCCCCCCCSCCCCCCCCn1c(C)c(C(=O)C(N)=O)c2c(OCC(=O)O)cccc21 [ILY-V-24, 2,2′-(1,1′-(8,8′-(Octane-1,8-diylbis(sulfanediyl))bis(octane-8,1-diyl))bis(3-(2-amino-2-oxoacetyl)-2-methyl-1H-indole-4,1-diyl))bis(oxy)diacetic acid]	4 to 8			
Cc1c(C(=O)C(N)=O)c2c(OCC(=O)O)cccc2n1Cc1ccccc1-c1ccccc1 [ILY-4001, 2-(3-(2-amino-2-oxoacetyl)-1-(biphenyl-2-ylmethyl)-2-methyl-1H-indol-4-yloxy)acetic acid]		~72	~0.166	~200
